This is an account of results in patent publication US11026877B2, “Cosmetic compositions for bleaching the skin” (Henkel AG & Co. KGaA, priority 2014, dated 2021).

Assay type in all cases: cell-based, human
Holding throughout (parameters): key: + stands for increased expression; − for reduced expression; 0 for no change
What all share (conditions): topical, 24 hours, 30 μL, in water with 3% by weight PEG-40 Hydrogenated Castor Oil; in comparison with the blank control

For assay [1], the system named is gp100. The assay is described as follows: Gene expression by quantitative real-time PCR in reconstructed melanocyte models type VI (Skinethic): gp100. The protocol:
(§1) The effect of licorice extract (oil-soluble) and ascorbyl tetraisopalmitate on the expression of melanogenesis-relevant genes was studied in reconstructed melanocyte models type VI from the company Skinethic. In this case, human keratinocytes were cultured together with type VI melanocytes, so that a very dark skin model forms. Together the cells form a three-dimensional epithelial tissue. Three models each were treated topically for 24 hours with 30 μL of the test formulations. In this case, the formulation is first applied to the model and then carefully distributed with a brush. Incubation then occurs at 37° C. with 5% CO2. Untreated models and models treated with a blank control (3% PEG-40 Hydrogenated Castor Oil in water) were run concurrently as the control. The gene expressions of the melanocyte-specific markers were studied using quantitative real-time PCR. […] In the subsequent PCR reaction, which is carried out with the aid of gene-specific primers for the particular markers and is used for the amplification of the target gene segments, the formation of the PCR products is detected online via a fluorescence signal. The fluorescence signal in this case is proportional to the amount of the formed PCR product. The greater the expression of a specific gene, the greater the amount of the formed PCR product and the greater the fluorescence signal. […]
In general terms: Quantitative PCR measures a nucleic acid by following its amplification.

For assay [2], the system named is TRP2. The assay is described as follows: Gene expression by quantitative real-time PCR in reconstructed melanocyte models type VI (Skinethic): TRP2. The procedure: as §1
The subject of assay [3] is TRP1. The assay is described as follows: Gene expression by quantitative real-time PCR in reconstructed melanocyte models type VI (Skinethic): TRP1. The procedure: as §1
Assay [4] deals with ckit. In words: Gene expression by quantitative real-time PCR in reconstructed melanocyte models type VI (Skinethic): ckit. The procedure:
as §1

The subject of assay [5] is Tyrosinase. The assay is described as follows: Gene expression by quantitative real-time PCR in reconstructed melanocyte models type VI (Skinethic): Tyr. The protocol: as §1

As for `CCCCCCCCC(CCCCCC)C(=O)OC[C@H](OC(=O)C(CCCCCC)CCCCCCCC)[C@H]1OC(=O)C(OC(=O)C(CCCCCC)CCCCCCCC)=C1OC(=O)C(CCCCCC)CCCCCCCC` (some centres unmarked) [0.05% Vitamin tetraisopalmitate, ascorbyl tetraisopalmitate], in assay [1], the Gp100 gene expression result is recorded as “−”. In addition, the TRP2 gene expression entry in assay [2] is “+”. The TRP1 gene expression entry in assay [3] is recorded as “−”. For the same compound, in assay [4], the ckit gene expression turned out to be 0. The Tyr gene expression entry in assay [5] is “+”.
